Results from patent US9399646B2 (Genentech, Inc., priority 2010, dated 2016).

Key:
ER-α in MCF-7 cells = molecular target: T1, ER-α in MCF-7 cells (Homo sapiens, UniProt P03372); assay: Breast cancer cell ER-α in cell western assay (SP1); type: cell-based; design: endogenous in cells; host or cells: MCF-7; conditions: 4 or 24 hr post compound addition; for Emax: MCF7, SP1 antibody, read-out: ER-α In Cell Western Assay (SP1) Max Response; for DC50: SP1 antibody, read-out: ER-α In Cell Western Assay (SP1) IC50
T1 sequence (P03372 1-595): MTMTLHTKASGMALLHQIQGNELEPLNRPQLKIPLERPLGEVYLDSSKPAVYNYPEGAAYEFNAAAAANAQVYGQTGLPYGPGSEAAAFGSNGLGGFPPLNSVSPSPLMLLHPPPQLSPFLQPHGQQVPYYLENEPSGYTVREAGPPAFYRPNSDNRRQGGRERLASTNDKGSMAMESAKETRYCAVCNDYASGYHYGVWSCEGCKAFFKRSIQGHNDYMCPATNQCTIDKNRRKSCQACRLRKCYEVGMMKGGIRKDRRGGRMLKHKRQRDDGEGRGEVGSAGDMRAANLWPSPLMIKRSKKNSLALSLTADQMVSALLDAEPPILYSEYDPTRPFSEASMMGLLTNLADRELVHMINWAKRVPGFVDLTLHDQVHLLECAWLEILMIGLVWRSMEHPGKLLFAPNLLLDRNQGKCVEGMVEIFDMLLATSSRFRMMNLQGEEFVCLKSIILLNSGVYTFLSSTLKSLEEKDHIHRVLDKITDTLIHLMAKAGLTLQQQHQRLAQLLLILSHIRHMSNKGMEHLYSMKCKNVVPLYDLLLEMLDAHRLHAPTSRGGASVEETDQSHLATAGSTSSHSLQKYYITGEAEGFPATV
Outline: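 Read-out is infrared in-cell western: SP1-detected ER intensity at 800 nm divided by DRAQ5 DNA intensity at 700 nm, relative to untreated wells ×100.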

MCF-7 cells = assay: Breast cancer cell viability assay (CellTiter-Glo, 5 days); type: cell-based; conditions: 5 days' compound exposure; for IC50: Homo sapiens, MCF7, 120 h
Outline: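 Eleven-point semilog compound series, final 0.3-0.000003 μM, added to overnight-adhered MCF-7 cells (320/well; RPMI, 10% FBS, 20 mM HEPES) for 5 days. Viability read by CellTiter-Glo luminescence, background from medium without cells subtracted, expressed relative to untreated cells.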

Compound	Emax (ER-α in MCF-7 cells) [%]	DC50 (ER-α in MCF-7 cells) [nM]	MCF7 Viability Assay Max Response (MCF-7 cells)	IC50 (MCF-7 cells) [nM]
CC/C(=C(/c1ccc(/C=C/C(=O)NS(C)(=O)=O)cc1)c1ccc2[nH]ncc2c1)c1ccc(F)cc1Cl [Compound 408, (E)-3-(4-((E)-2-(2-Chloro-4-fluorophenyl)-1-(1H-indazol-5-yl)but-1-en-1-yl)phenyl)-N-(methylsulfonyl)acrylamide]	≥ 40	≤ 100	++ (++ = a single % value ≧ 40%)	≤ 100
CCCS(=O)(=O)NC(=O)/C=C/c1ccc(/C(=C(/CC)c2ccc(F)cc2Cl)c2ccc3[nH]ncc3c2)cc1 [Compound 409, (E)-3-(4-((E)-2-(2-Chloro-4-fluorophenyl)-1-(1H-indazol-5-yl)but-1-en-1-yl)phenyl)-N-(propylsulfonyl)acrylamide]	≥ 40	≤ 100	++ (++ = a single % value ≧ 40%)	≤ 100
CCCCCS(=O)(=O)NC(=O)/C=C/c1ccc(/C(=C(/CC)c2ccc(F)cc2Cl)c2ccc3[nH]ncc3c2)cc1 [Compound 410, (E)-3-(4-((E)-2-(2-Chloro-4-fluorophenyl)-1-(1H-indazol-5-yl)but-1-en-1-yl)phenyl)-N-(pentylsulfonyl)acrylamide]	≥ 40	≤ 100	++ (++ = a single % value ≧ 40%)	≤ 100
CNC(=O)/C=C/c1ccc(/C(=C(\c2ccccc2)C2CCC2)c2ccc3c(cnn3C)c2)cc1 [Compound 411, (E)-3-(4-((E)-2-Cyclobutyl-1-(1-methyl-1H-indazol-5-yl)-2-phenylvinyl)phenyl)-N-methylacrylamide]	≥ 40	≤ 100	++ (++ = a single % value ≧ 40%)	≤ 100
CNC(=O)/C=C/c1ccc(/C(=C(\c2ccccc2)C2CCC2)c2ccc3[nH]ncc3c2)cc1 [Compound 412, (E)-3-(4-((E)-2-Cyclobutyl-1-(1H-indazol-5-yl)-2-phenylvinyl)phenyl)-N-methylacrylamide]	≥ 40	≤ 100	++ (++ = a single % value ≧ 40%)	≤ 100
O=C(/C=C/c1ccc(/C(=C(\c2ccccc2)C2CCC2)c2ccc3[nH]nc(F)c3c2)cc1)NC1CC1 [Compound 413, (E)-3-(4-((E)-2-Cyclobutyl-1-(3-fluoro-1H-indazol-5-yl)-2-phenylvinyl)phenyl)-N-cyclopropylacrylamide]	≥ 40	≤ 100	++ (++ = a single % value ≧ 40%)	≤ 100
O=C(/C=C/c1ccc(/C(=C(\c2ccccc2)C2CCC2)c2ccc3[nH]nc(F)c3c2)cc1)NCCO [Compound 414, (E)-3-(4-((E)-2-Cyclobutyl-1-(3-fluoro-1H-indazol-5-yl)-2-phenylvinyl)phenyl)-N-(2-hydroxyethyl)acrylamide]	≥ 40	≤ 100	++ (++ = a single % value ≧ 40%)	≤ 100
O=C(/C=C/c1ccc(/C(=C(\c2ccccc2)C2CCC2)c2ccc3[nH]nc(F)c3c2)cc1)NCC(F)(F)F [Compound 415, (E)-3-(4-((E)-2-Cyclobutyl-1-(3-fluoro-1H-indazol-5-yl)-2-phenylvinyl)phenyl)-N-(2,2,2-trifluoroethyl)acrylamide]	≥ 40	≤ 100	++ (++ = a single % value ≧ 40%)	≤ 100
CC/C(=C(/c1ccc(/C=C/C(=O)NS(C)(=O)=O)cc1)c1ccc2scnc2c1)c1ccc(F)cc1Cl [Compound 416, (E)-3-(4-((E)-1-(Benzo[d]thiazol-5-yl)-2-(2-chloro-4-fluorophenyl)but-1-en-1-yl)phenyl)-N-(methylsulfonyl)acrylamide]	≥ 40	≤ 100	++ (++ = a single % value ≧ 40%)	≤ 100
CC/C(=C(/c1ccc(/C=C/C(N)=O)cc1)c1ccc2[nH]ncc2c1)c1ccc(F)cc1Cl [Compound 417, (E)-3-(4-((E)-2-(2-Chloro-4-fluorophenyl)-1-(1H-indazol-5-yl)but-1-en-1-yl)phenyl)acrylamide]	≥ 40	≤ 100	++ (++ = a single % value ≧ 40%)	≤ 100
CC/C(=C(/c1ccc(/C=C/C(=O)NO)cc1)c1ccc2[nH]ncc2c1)c1ccccc1 [Compound 418, (E)-3-(4-((E)-1-(1H-Indazol-5-yl)-2-phenylbut-1-en-1-yl)phenyl)-N-hydroxyacrylamide]	≥ 40	≤ 100	++ (++ = a single % value ≧ 40%)	≤ 100
CC/C(=C(/c1ccc(/C=C/C(=O)NC(C)C)cc1)c1ccc2[nH]ncc2c1)c1ccccc1 [Compound 419, (E)-3-(4-((E)-1-(1H-Indazol-5-yl)-2-phenylbut-1-en-1-yl)phenyl)-N-isopropylacrylamide]	≥ 40	≤ 100	++ (++ = a single % value ≧ 40%)	≤ 100
CC/C(=C(/c1ccc(/C=C/C(=O)NC)cc1)c1ccc2[nH]ncc2c1)c1ccc(F)cc1Cl [Compound 420, (E)-3-(4-((E)-2-(2-Chloro-4-fluorophenyl)-1-(1H-indazol-5-yl)but-1-en-1-yl)phenyl)-N-methylacrylamide]	≥ 40	≤ 100	++ (++ = a single % value ≧ 40%)	≤ 100
CC/C(=C(/c1ccc(/C=C/C(=O)NOC)cc1)c1ccc2[nH]ncc2c1)c1ccc(F)cc1Cl [Compound 421, (E)-3-(4-((E)-2-(2-Chloro-4-fluorophenyl)-1-(1H-indazol-5-yl)but-1-en-1-yl)phenyl)-N-methoxyacrylamide]	≥ 40	≤ 100	++ (++ = a single % value ≧ 40%)	≤ 100
CC/C(=C(/c1ccc(/C=C/C(=O)N(C)OC)cc1)c1ccc2[nH]ncc2c1)c1ccc(F)cc1Cl [Compound 422, (E)-3-(4-((E)-2-(2-Chloro-4-fluorophenyl)-1-(1H-indazol-5-yl)but-1-en-1-yl)phenyl)-N-methoxy-N-methylacrylamide]	≥ 40	≤ 100	++ (++ = a single % value ≧ 40%)	≤ 100
CC/C(=C(/c1ccc(/C=C/C(=O)NS(C)(=O)=O)cc1)c1ccc2[nH]ncc2c1)c1ccccc1 [Compound 423, (E)-3-(4-((E)-1-(1H-Indazol-5-yl)-2-phenylbut-1-en-1-yl)phenyl)-N-(methylsulfonyl)acrylamide]	≥ 40	≤ 100	++ (++ = a single % value ≧ 40%)	≤ 100
CC/C(=C(/c1ccc(/C=C/C(=O)NS(C)(=O)=O)cc1)c1ccc2c(cnn2C)c1)c1ccc(F)cc1Cl [Compound 424, (E)-3-(4-((E)-2-(2-Chloro-4-fluorophenyl)-1-(1-methyl-1H-indazol-5-yl)but-1-en-1-yl)phenyl)-N-(methylsulfonyl)acrylamide]	≥ 40	≤ 100	++ (++ = a single % value ≧ 40%)	> 100
CC/C(=C(/c1ccc(/C=C/C(=O)Nc2nn[nH]n2)cc1)c1ccc2[nH]ncc2c1)c1ccc(F)cc1Cl [Compound 425, (E)-3-(4-((E)-2-(2-Chloro-4-fluorophenyl)-1-(1H-indazol-5-yl)but-1-en-1-yl)phenyl)-N-(2H-tetrazol-5-yl)acrylamide]	≥ 40	≤ 100	++ (++ = a single % value ≧ 40%)	≤ 100
CC/C(=C(/c1ccc(/C=C/C(N)=O)cc1)c1ccc2scnc2c1)c1ccccc1 [Compound 426, (E)-3-(4-((E)-1-(Benzo[d]thiazol-5-yl)-2-phenylbut-1-en-1-yl)phenyl)acrylamide]	≥ 40	≤ 100	++ (++ = a single % value ≧ 40%)	≤ 100
CC/C(=C(/c1ccc(/C=C/C(=O)NC)cc1)c1ccc2scnc2c1)c1ccccc1 [Compound 427, (E)-3-(4-((E)-1-(Benzo[d]thiazol-5-yl)-2-phenylbut-1-en-1-yl)phenyl)-N-methylacrylamide]	≥ 40	≤ 100	++ (++ = a single % value ≧ 40%)	≤ 100
CC/C(=C(/c1ccc(/C=C/C(=O)NS(=O)(=O)c2ccccc2)cc1)c1ccc2[nH]ncc2c1)c1ccc(F)cc1Cl [Compound 428, (E)-3-(4-((E)-2-(2-Chloro-4-fluorophenyl)-1-(1H-indazol-5-yl)but-1-en-1-yl)phenyl)-N-(phenylsulfonyl)acrylamide]	≥ 40	≤ 100	++ (++ = a single % value ≧ 40%)	≤ 100
